Calls of active or inactive are those of the source.
What was measured:
Format in all cases: functional, cell-based
RAW264.7 [1] = experiment: Antiinflammatory activity against LPS-induced mouse RAW264.7 cells assessed as reduction in iNOS protein level at 20 uM
RAW264.7 [2] = experiment: Antiinflammatory activity against LPS-induced mouse RAW264.7 cells assessed as reduction in COX-2 protein level at 20 uM
NRK-52E [3] = experiment: Anti-renal-fibrosis activity in TGF-beta1 induced rat NRK-52E cells assessed as downregulation of fibronectin protein level at 20 uM by Western blot analysis
NRK-52E [4] = experiment: Anti-renal-fibrosis activity in TGF-beta1 induced rat NRK-52E cells assessed as downregulation of collagen I protein level at 20 uM by Western blot analysis
NRK-52E [5] = experiment: Anti-renal-fibrosis activity in TGF-beta1 induced rat NRK-52E cells assessed as downregulation of alpha-SMA protein level at 20 uM by Western blot analysis

Measured: Activity

COc1c(O)c(=O)n(C)c2c(O)cccc12
active: all assays above

COc1cc(=O)n(C)c2c(O)cccc12
active: all assays above

N=C(N)N1CCC[C@H]1c1ccc2cc(O)cnc2c1O
active: RAW264.7 [1] | RAW264.7 [2]

COc1c(O)cnc2c(O)cccc12
active: RAW264.7 [1] | RAW264.7 [2]

COc1cc(=O)[nH]c2c(OC)cccc12
active: all assays above

Oc1cnc2c(O)cccc2c1
active: RAW264.7 [1] | RAW264.7 [2]

Source: ChEMBL document CHEMBL5335856, “Structurally Diverse Alkaloids with Anti-Renal-Fibrosis Activity from the Centipede Scolopendra subspinipes mutilans” (J Nat Prod, 2024)
